Reference: patent US8344008B2 (Janssen Pharmaceutica NV, priority 2007, dated 2013)

Biological target: T1, recombinant human LTA4 hydrolase (rhLTA4H) (Homo sapiens, UniProt P09960)
T1 construct: made in house; host or cells: Spodoptera frugiperda (Sf-9) cells, baculovirus (pFastBac1)
T1 sequence (P09960 1-611): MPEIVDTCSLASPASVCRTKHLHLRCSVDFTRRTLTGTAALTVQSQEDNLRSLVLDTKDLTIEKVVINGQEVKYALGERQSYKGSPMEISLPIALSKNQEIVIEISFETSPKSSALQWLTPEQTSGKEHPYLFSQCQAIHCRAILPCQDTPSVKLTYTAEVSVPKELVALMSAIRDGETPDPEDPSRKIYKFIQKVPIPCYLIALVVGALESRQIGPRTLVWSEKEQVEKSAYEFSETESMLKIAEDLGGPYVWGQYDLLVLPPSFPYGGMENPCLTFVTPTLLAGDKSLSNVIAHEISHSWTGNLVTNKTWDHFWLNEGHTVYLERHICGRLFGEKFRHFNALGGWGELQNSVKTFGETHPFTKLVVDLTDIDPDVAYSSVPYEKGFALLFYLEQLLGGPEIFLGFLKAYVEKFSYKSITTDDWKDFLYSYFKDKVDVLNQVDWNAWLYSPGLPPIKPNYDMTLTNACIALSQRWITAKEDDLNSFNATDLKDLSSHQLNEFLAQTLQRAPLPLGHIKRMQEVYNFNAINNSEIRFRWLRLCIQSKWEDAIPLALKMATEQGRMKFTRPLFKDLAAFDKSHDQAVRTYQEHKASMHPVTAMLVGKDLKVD
Assay: Recombinant Human LTA4 Hydrolase Assay for LTA4 Hydrolase Inhibitor Activity
Type: biochemical
Conditions: average of results obtained; LTB4 quantified by enzyme-linked immunoassay
Experimental: Biological Methods: Recombinant Human LTA4 Hydrolase Assay for LTA4 Hydrolase Inhibitor Activity
Compounds of the present invention were tested for LTA4 hydrolase inhibitor activity against recombinant human LTA4 hydrolase (rhLTA4H). Vectors were prepared and used to express rhLTA4H essentially as follows: LTA4 hydrolase encoding DNA was amplified by polymerase chain reaction (PCR) using a human placental cDNA library as a template. Oligonucleotide primers for the PCR reaction were based on the 5′-end, and the complement of the 3′-end, of the published nucleotide sequence for the coding region of the human LTA4 hydrolase gene (C. D. Funk et al., Proc. Natl. Acad. Sci. USA 1987, 84:6677-6681). The amplified 1.9 kb DNA fragment encoding LTA4 hydrolase was isolated and cloned into the pFastBac1 vector (Invitrogen). Recombinant baculovirus was generated as described by the manufacturer, and used to infect Spodoptera frugiperda (Sf-9) cells. Recombinant LTA4 hydrolase enzyme was purified from the infected Sf-9 cells essentially as described by J. K. Gierse et al. (Protein Expression and Purification 1993, 4:358-366). The purified enzyme solution was adjusted to contain 0.29 mg/mL LTA4 hydrolase, 50 mM Tris (pH 8.0), 150 mM NaCl, 5 mM dithiothreitol, 50% glycerol, and EDTA-free Complete protease inhibitor cocktail (Roche). The specific activity of the enzyme was about 3.8 μmol/min/mg.
LTA4 substrate was prepared from the methyl ester of LTA4 (Cayman Chemical) by treatment with 67 equiv of NaOH under nitrogen at rt for 40 min. The LTA4 substrate in its free acid form was kept frozen at −80° C. until needed. Each compound was diluted to different concentrations in assay buffer (0.1 M potassium phosphate (pH 7.4), 5 mg/mL fatty acid free BSA) containing 10% DMSO. A 25-uL aliquot of each compound dilution was incubated for 10 min at rt with an equal volume of assay buffer containing 36 ng of recombinant human LTA4H. The solution was then adjusted to 200 μL with assay buffer. LTA4 (free acid) was thawed and diluted in assay buffer to a concentration of 357 ng/mL, and 25 μL (9 ng) of LTA4 substrate was added to the reaction mixture (total volume=225 μL) at time zero. Each reaction was carried out at rt for 10 min. The reaction was stopped by diluting 10 μL of the reaction mixture with 200 μL of assay buffer. LTB4 was quantified in the diluted sample by a commercially available enzyme-linked immunoassay (Cayman Chemical Co.), as recommended by the manufacturer. Positive controls, under essentially identical conditions but without addition of an inhibitor compound, and negative controls, containing all assay components except enzyme, were routinely run in each experiment. […]
Results for the compounds tested in this assay are presented in Table 1 as an average of results obtained.

First: CC(=O)N1C[C@@H]2C[C@H]1CN2CCOc1ccc(Oc2nc3ccccc3s2)cc1 [Example 9, (S,S)-1-(5-{2-[4-(Benzothiazol-2-yloxy)-phenoxy]-ethyl}-2,5-diaza-bicyclo[2.2.1]hept-2-yl)-ethanone]
Second: CC(=O)N1C[C@@H]2C[C@H]1CN2CCc1ccc(Oc2nc3ccccc3s2)cc1 [Example 7, (S,S)-1-(5-{2-[4-(Benzothiazol-2-yloxy)-phenyl]-ethyl}-2,5-diaza-bicyclo[2.2.1]hept-2-yl)-ethanone]
The Ki of the first is 4.3-fold lower: 3 nM for the first, 13 nM for the second.

First: Cn1ccc(C(=O)N2CC3CN(Cc4ccc(Oc5nc6ccccc6s5)cc4)CC3C2)c1 (centres unmarked) [Example 108, {5-[4-(Benzothiazol-2-yloxy)-benzyl]-hexahydro-pyrrolo[3,4-c]pyrrol-2-yl}-(1-methyl-1H-pyrrol-3-yl)-methanone]
Second: CS(=O)(=O)N1CC2CN(Cc3ccc(Oc4nc5ccccc5s4)cc3)CC2C1 (centres unmarked) [Example 129, 2-[4-(5-Methanesulfonyl-hexahydro-pyrrolo[3,4-c]pyrrol-2-ylmethyl)-phenoxy]-benzothiazole]
The Ki of the first is 2.8-fold higher: 97 nM for the first, 35 nM for the second.

First: CC(=O)N1[C@@H]2CC[C@H]1C[C@@H](NCCOc1ccc(Oc3nc4ccc(C)cc4s3)cc1)C2 [Example 172, meso-exo-1-(3-{2-[4-(6-Methyl-benzothiazol-2-yloxy)-phenoxy]-ethylamino}-8-aza-bicyclo[3.2.1]oct-8-yl)-ethanone]
Second: CS(=O)(=O)N[C@@H]1C[C@H]2CC[C@@H](C1)N2CCOc1ccc(Oc2nc3ccc(Cl)cc3s2)cc1 [Example 225, meso-exo-N-(8-{2-[4-(6-Chloro-benzothiazol-2-yloxy)-phenoxy]-ethyl}-8-aza-bicyclo[3.2.1]oct-3-yl)-methanesulfonamide]
The Ki of the first is 9.1-fold higher: 1050 nM for the first, 116 nM for the second.

First: CS(=O)(=O)N[C@H]1C[C@H]2CC[C@@H](C1)N2Cc1ccc(Oc2nc3ccccc3s2)cc1 [Example 58, meso-endo-N-{8-[4-(Benzothiazol-2-yloxy)-benzyl]-8-aza-bicyclo[3.2.1]oct-3-yl}-methanesulfonamide]
Second: CC(=O)N(C)[C@H]1C[C@H]2CC[C@@H](C1)N2Cc1ccc(Oc2nc3ccccc3s2)cc1 [Example 70, meso-endo-N-{8-[4-(Benzothiazol-2-yloxy)-benzyl]-8-aza-bicyclo[3.2.1]oct-3-yl}-N-methyl-acetamide]
The Ki of the first is 20-fold lower: 0.2 nM for the first, 4 nM for the second. The first binds more tightly here.

Compared with `NC(=O)N1[C@@H]2CC[C@H]1C[C@H](NCCc1ccc(Oc3nc4c(F)cccc4s3)cc1)C2` [Example 212, meso-exo-3-{2-[4-(4-Fluoro-benzothiazol-2-yloxy)-phenyl]-ethylamino}-8-aza-bicyclo[3.2.1]octane-8-carboxylic acid amide], `NC(=O)N1[C@@H]2CC[C@H]1C[C@@H](NCc1ccc(Oc3nc4c(F)cccc4s3)cc1)C2` [Example 198, meso-endo-3-[4-(4-Fluoro-benzothiazol-2-yloxy)-benzylamino]-8-aza-bicyclo[3.2.1]octane-8-carboxylic acid amide] is 28-fold lower in Ki: 248 nM for the first, 9 nM for the second.

First: CC(=O)N1CC2CN(CCc3ccc(Oc4nc5ccc(C)cc5s4)cc3)CC2C1 (centres unmarked) [Example 148, 1-(5-{2-[4-(6-Methyl-benzothiazol-2-yloxy)-phenyl]-ethyl}-hexahydro-pyrrolo[3,4-c]pyrrol-2-yl)-ethanone]
Second: Cc1ccc2nc(Oc3ccc(CCN4CC5CN(C(N)=O)CC5C4)cc3)sc2c1 (centres unmarked) [Example 146]
The Ki of the first is 2.9-fold higher: 229 nM for the first, 78 nM for the second.

Compared with `CS(=O)(=O)N[C@@H]1C[C@H]2CC[C@@H](C1)N2CCOc1ccc(Oc2nc3cc(Cl)ccc3s2)cc1` [Example 265, meso-exo-N-(8-{2-[4-(5-Chloro-benzothiazol-2-yloxy)-phenoxy]-ethyl}-8-aza-bicyclo[3.2.1]oct-3-yl)-methanesulfonamide], `NC(=O)N[C@@H]1C[C@H]2CC[C@@H](C1)N2CCOc1ccc(Oc2nc3cccc(F)c3s2)cc1` [Example 282, meso-exo-(8-{2-[4-(7-Fluoro-benzothiazol-2-yloxy)-phenoxy]-ethyl}-8-aza-bicyclo[3.2.1]oct-3-yl)-urea] is 39-fold lower in Ki: 310 nM for the first, 8 nM for the second.

Compared with `COC(=O)c1ccc(CN2CC3CN(Cc4ccc(Oc5nc6ccccc6s5)cc4)CC3C2)cc1` (centres unmarked) [Example 153, 4-{5-[4-(Benzothiazol-2-yloxy)-benzyl]-hexahydro-pyrrolo[3,4-c]pyrrol-2-ylmethyl)-benzoic acid methyl ester], `O=S(=O)(c1ccco1)N1CC2CN(Cc3ccc(Oc4nc5ccccc5s4)cc3)CC2C1` (centres unmarked) [Example 121, 2-{4-[5-(Furan-2-sulfonyl)-hexahydro-pyrrolo[3,4-c]pyrrol-2-ylmethyl]-phenoxy}-benzothiazole] is 3.8-fold higher in Ki: 167 nM for the first, 631 nM for the second. The first binds more tightly here.

Going from `CC(=O)N1C[C@@H]2C[C@H]1CN2Cc1ccc(Oc2nc3ccccc3s2)cc1F` [Example 79, (S,S)-1-{5-[4-(Benzothiazol-2-yloxy)-2-fluoro-benzyl]-2,5-diaza-bicyclo[2.2.1]hept-2-yl}-ethanone] to `CC(C)(O)C(=O)N1C[C@@H]2C[C@H]1CN2Cc1ccc(Oc2nc3ccccc3s2)cc1` [Example 12, (S,S)-1-{5-[4-(Benzothiazol-2-yloxy)-benzyl]-2,5-diaza-bicyclo[2.2.1]hept-2-yl}-2-hydroxy-2-methyl-propan-1-one], the Ki falls from 59 nM to 31 nM (1.9-fold).

Going from `CC(C)(C)OC(=O)N1CC(C(=O)N2C[C@@H]3C[C@H]2CN3Cc2ccc(Oc3nc4ccccc4s3)cc2)C1` [Example 64, (S,S)-3-{5-[4-(Benzothiazol-2-yloxy)-benzyl]-2,5-diaza-bicyclo[2.2.1]heptane-2-carbonyl}-azetidine-1-carboxylic acid tert-butyl ester] to `CC(C)(C)OC(=O)NCC(=O)N1C[C@@H]2C[C@H]1CN2Cc1ccc(Oc2nc3ccccc3s2)cc1` [Example 14, (S,S)-(2-{5-[4-(Benzothiazol-2-yloxy)-benzyl]-2,5-diaza-bicyclo[2.2.1]hept-2-yl}-2-oxo-ethyl)-carbamic acid tert-butyl ester], the Ki falls from 58 nM to 9 nM (6.4-fold).

Compared with `NC(=O)N[C@@H]1C[C@H]2CC[C@@H](C1)N2Cc1ccc(Oc2nc3c(Cl)cccc3s2)cc1` [Example 229, meso-exo-{8-[4-(4-Chloro-benzothiazol-2-yloxy)-benzyl]-8-aza-bicyclo[3.2.1]oct-3-yl}-urea], `CC(=O)N1CC2CCC(C1)N2CCOc1ccc(Oc2nc3c(Cl)cccc3s2)cc1` [Example 247] is 8.3-fold higher in Ki: 20 nM for the first, 167 nM for the second.

Compared with `NC(=O)N1CC2CN(Cc3ccc(Oc4nc5c(F)cccc5s4)cc3F)CC2C1` (centres unmarked) [Example 161, 5-[2-Fluoro-4-(4-fluoro-benzothiazol-2-yloxy)-benzyl]-hexahydro-pyrrolo[3,4-c]pyrrole-2-carboxylic acid amide], `CC(=O)N1C[C@H]2C[C@@H]1CN2CCOc1ccc(Oc2nc3ccc(Cl)cc3s2)cc1` [Example 177, (R,R)-1-(5-{2-[4-(6-Chloro-benzothiazol-2-yloxy)-phenoxy]-ethyl}-2,5-diaza-bicyclo[2.2.1]hept-2-yl)-ethanone] is 2.2-fold higher in Ki: 43 nM for the first, 94 nM for the second.

Going from `O=C([C@H]1CCOC1)N1C[C@@H]2C[C@H]1CN2Cc1ccc(Oc2nc3ccccc3s2)cc1` [Example 13, (S,S,S)-{5-[4-(Benzothiazol-2-yloxy)-benzyl]-2,5-diaza-bicyclo[2.2.1]hept-2-yl}-(tetrahydro-furan-3-yl)-methanone] to `CS(=O)(=O)N1C[C@@H]2C[C@H]1CN2CCc1ccc(Oc2nc3ccc(Cl)cc3s2)cc1` [Example 238, (S,S)-6-Chloro-2-{4-[2-(5-methanesulfonyl-2,5-diaza-bicyclo[2.2.1]hept-2-yl)-ethyl]-phenoxy}-benzothiazole], the Ki rises from 34 nM to 651 nM (19-fold).
